# Laboratory results reported in article doi:10.1101/2021.04.08.439011v1 (biorxiv, 2021).
# Where two headings read alike, the source gives them in different places.
# Columns and labels:
# [1] = molecular target: RSK3(Kin.Dom.2-C-terminal) (Homo sapiens, UniProt Q15349); conditions: 0.1 µM; binder
# [2] = molecular target: GCN2(Kin.Dom.2,S808G) (Homo sapiens, UniProt Q9P2K8, S808G); conditions: 0.1 µM; binder
# [3] = molecular target: JAK1(JH1domain-catalytic) (Homo sapiens, UniProt P23458); conditions: 0.1 µM; binder
# [4] = molecular target: RSK1(Kin.Dom.2-C-terminal) (Homo sapiens, UniProt Q15418); conditions: 0.1 µM; binder
# RSK1(Kin.Dom.2-C-terminal), sequence (Q15418 whole entry): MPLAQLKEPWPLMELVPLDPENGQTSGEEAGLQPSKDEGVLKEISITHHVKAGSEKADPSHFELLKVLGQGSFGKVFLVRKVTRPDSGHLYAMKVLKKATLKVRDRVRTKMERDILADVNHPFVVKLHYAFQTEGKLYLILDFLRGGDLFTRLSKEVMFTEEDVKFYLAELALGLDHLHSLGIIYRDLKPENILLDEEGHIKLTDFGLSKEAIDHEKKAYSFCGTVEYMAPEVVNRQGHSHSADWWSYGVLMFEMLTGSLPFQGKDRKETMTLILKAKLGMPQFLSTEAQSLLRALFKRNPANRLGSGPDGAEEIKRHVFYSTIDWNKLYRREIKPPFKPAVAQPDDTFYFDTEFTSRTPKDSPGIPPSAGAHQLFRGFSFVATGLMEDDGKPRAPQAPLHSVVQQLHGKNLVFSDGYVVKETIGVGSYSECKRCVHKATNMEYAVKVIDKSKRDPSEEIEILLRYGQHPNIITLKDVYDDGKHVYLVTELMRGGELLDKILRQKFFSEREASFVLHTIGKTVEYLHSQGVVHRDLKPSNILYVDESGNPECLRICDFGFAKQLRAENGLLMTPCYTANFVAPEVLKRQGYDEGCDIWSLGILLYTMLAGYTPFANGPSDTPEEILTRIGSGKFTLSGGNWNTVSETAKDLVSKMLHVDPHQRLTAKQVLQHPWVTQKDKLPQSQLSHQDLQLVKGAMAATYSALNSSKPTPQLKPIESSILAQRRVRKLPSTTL
# [5] = molecular target: TYK2(JH1domain-catalytic) (Homo sapiens, UniProt P29597); conditions: 0.1 µM; binder
# TYK2(JH1domain-catalytic), sequence (P29597 whole entry): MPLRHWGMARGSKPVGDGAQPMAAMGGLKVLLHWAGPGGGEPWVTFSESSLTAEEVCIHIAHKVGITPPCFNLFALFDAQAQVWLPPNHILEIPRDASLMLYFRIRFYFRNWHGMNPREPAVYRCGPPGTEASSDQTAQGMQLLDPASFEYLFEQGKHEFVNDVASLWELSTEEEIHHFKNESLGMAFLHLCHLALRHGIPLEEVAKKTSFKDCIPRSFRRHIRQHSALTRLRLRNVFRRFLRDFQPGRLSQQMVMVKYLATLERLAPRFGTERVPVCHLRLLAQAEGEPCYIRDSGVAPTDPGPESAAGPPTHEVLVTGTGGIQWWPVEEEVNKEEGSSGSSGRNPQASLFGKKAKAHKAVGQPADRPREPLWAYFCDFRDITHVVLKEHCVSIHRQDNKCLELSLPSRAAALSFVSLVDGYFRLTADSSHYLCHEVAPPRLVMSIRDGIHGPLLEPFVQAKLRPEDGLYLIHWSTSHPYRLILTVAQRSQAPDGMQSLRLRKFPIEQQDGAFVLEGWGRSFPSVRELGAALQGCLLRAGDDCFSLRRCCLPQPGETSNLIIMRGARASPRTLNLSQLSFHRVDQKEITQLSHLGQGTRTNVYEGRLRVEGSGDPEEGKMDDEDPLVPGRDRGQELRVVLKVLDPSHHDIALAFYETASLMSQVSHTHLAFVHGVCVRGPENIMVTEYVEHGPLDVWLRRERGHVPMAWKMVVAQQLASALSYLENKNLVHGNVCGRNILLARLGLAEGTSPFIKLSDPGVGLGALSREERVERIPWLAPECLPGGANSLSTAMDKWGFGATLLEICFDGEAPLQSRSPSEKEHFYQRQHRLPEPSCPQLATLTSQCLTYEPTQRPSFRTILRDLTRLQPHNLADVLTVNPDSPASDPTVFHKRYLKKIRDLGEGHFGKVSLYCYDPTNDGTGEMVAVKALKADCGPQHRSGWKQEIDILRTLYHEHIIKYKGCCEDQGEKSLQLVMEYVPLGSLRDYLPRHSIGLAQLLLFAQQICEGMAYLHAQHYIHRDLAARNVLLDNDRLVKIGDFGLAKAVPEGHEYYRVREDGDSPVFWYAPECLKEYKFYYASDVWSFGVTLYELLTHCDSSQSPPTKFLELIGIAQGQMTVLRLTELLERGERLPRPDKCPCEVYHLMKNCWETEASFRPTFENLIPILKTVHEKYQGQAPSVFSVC
# [6] = molecular target: JAK1(JH2domain-pseudokinase) (Homo sapiens, UniProt P23458); conditions: 0.1 µM; binder
# [7] = molecular target: RSK1(Kin.Dom.1-N-terminal) (Homo sapiens, UniProt Q15418); conditions: 0.1 µM; binder
# RSK1(Kin.Dom.1-N-terminal), sequence (Q15418 whole entry): as the sequence (Q15418 whole entry) above
# [8] = molecular target: TYK2(JH2domain-pseudokinase) (Homo sapiens, UniProt P29597); conditions: 0.1 µM; binder
# TYK2(JH2domain-pseudokinase), sequence (P29597 whole entry): as the sequence (P29597 whole entry) above
# [9] = molecular target: ABL1(M351T) (Homo sapiens, UniProt P00519, M351T); conditions: phosphorylated; 0.1 µM; binder
# [10] = molecular target: CDK2 (Homo sapiens, UniProt P24941); conditions: 0.1 µM; binder
# [11] = molecular target: IKK-alpha (Homo sapiens, UniProt O15111); conditions: 0.1 µM; binder
# [12] = molecular target: KIT(D816V) (Homo sapiens, UniProt P10721, D816V); conditions: 0.1 µM; binder
# KIT(D816V), sequence (P10721 whole entry D816V): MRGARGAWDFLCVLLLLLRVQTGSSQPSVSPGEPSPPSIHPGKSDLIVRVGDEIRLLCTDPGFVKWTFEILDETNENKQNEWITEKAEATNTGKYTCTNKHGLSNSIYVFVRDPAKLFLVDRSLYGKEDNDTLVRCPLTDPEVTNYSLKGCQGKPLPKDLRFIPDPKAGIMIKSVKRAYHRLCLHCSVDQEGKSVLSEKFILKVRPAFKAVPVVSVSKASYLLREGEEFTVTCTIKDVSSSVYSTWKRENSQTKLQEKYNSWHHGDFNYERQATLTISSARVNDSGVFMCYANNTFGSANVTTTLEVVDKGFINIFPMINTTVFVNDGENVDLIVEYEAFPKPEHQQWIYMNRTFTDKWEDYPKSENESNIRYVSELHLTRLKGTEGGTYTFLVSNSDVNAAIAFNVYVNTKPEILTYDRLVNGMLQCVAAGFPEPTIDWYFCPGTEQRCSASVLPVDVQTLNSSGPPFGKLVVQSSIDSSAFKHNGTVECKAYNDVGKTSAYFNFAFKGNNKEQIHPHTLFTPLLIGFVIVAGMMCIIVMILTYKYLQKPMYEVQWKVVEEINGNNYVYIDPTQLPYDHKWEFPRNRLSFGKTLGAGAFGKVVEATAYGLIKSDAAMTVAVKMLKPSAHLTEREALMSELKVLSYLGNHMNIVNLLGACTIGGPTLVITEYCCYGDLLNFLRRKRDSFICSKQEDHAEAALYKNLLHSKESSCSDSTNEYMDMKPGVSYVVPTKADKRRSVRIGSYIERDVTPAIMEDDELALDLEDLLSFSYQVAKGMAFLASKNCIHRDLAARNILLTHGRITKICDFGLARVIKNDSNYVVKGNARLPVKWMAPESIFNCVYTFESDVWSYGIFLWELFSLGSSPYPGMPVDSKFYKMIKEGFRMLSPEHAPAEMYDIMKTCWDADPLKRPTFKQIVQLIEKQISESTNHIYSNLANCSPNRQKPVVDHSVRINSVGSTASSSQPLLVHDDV
# [13] = molecular target: LRRK2(G2019S) (Homo sapiens, UniProt Q5S007, G2019S); conditions: 0.1 µM; binder
# [14] = molecular target: MAP3K1 (Homo sapiens, UniProt Q13233); conditions: 0.1 µM; binder
# [15] = molecular target: MINK (Homo sapiens, UniProt Q8N4C8); conditions: 0.1 µM; binder
# [16] = molecular target: MST4 (Homo sapiens, UniProt Q9P289); conditions: 0.1 µM; binder
# MST4, sequence (Q9P289 whole entry): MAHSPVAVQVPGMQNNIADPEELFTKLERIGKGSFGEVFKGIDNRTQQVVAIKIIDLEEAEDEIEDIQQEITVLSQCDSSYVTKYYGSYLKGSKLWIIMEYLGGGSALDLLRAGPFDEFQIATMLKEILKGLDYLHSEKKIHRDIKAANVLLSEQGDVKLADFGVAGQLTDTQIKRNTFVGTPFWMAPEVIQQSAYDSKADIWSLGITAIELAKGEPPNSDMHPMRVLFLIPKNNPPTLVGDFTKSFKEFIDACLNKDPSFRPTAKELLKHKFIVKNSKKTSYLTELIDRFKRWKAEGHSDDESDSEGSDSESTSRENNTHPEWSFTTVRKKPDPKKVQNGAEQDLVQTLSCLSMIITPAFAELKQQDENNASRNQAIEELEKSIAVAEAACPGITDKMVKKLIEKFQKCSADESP
# [17] = molecular target: MYLK (Homo sapiens, UniProt Q15746); conditions: 0.1 µM; binder
# [18] = molecular target: PAK7 (Homo sapiens, UniProt Q9P286); conditions: 0.1 µM; binder
# [19] = molecular target: PKN1 (Homo sapiens, UniProt Q16512); conditions: 0.1 µM; binder
# [20] = molecular target: PLK4 (Homo sapiens, UniProt O00444); conditions: 0.1 µM; binder
# PLK4, sequence (O00444 whole entry): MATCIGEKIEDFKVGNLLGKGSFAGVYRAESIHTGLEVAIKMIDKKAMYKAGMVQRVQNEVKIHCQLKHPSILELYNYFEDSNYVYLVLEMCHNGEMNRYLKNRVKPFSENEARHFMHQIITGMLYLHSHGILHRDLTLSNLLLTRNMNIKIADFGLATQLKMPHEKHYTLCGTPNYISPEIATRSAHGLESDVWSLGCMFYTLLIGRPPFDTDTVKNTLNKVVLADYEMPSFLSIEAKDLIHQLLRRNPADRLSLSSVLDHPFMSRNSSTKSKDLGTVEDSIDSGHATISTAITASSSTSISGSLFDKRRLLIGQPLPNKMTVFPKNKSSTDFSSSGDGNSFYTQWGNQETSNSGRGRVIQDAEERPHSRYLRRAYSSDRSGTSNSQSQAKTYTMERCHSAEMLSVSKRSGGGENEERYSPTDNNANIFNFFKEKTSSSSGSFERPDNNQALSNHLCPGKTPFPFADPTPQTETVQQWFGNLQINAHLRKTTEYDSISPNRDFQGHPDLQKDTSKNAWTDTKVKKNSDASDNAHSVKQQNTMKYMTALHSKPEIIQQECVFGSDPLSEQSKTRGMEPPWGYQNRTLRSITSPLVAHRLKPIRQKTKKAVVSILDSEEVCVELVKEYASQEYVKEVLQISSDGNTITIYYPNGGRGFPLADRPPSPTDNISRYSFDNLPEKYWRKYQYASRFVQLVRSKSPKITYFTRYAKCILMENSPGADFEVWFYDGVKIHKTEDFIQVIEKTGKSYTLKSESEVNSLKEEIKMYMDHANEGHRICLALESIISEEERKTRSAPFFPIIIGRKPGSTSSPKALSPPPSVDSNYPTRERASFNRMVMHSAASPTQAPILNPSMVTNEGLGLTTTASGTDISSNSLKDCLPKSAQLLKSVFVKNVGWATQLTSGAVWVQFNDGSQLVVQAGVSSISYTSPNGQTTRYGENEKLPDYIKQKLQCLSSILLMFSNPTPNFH
# [21] = molecular target: TIE2 (Homo sapiens, UniProt Q02763); conditions: 0.1 µM; binder
# [22] = molecular target: RPS6KA4(Kin.Dom.2-C-terminal) (Homo sapiens, UniProt O75676); conditions: 0.1 µM; binder
# [23] = molecular target: RSK4(Kin.Dom.1-N-terminal) (Homo sapiens, UniProt Q9UK32); conditions: 0.1 µM; binder
# [24] = molecular target: PKNB (M. tuberculosis) (Mycobacterium tuberculosis, UniProt P9WI81); conditions: 0.1 µM; binder
# [25] = molecular target: RPS6KA5(Kin.Dom.1-N-terminal) (Homo sapiens, UniProt O75582); conditions: 0.1 µM; binder
# [26] = molecular target: PFPK5(P. falciparum) (Plasmodium falciparum, UniProt P61075); conditions: 0.1 µM; binder
# [27] = molecular target: JAK2(JH1domain-catalytic) (Homo sapiens, UniProt O60674); conditions: 0.1 µM; binder
# [28] = molecular target: T1, PFCDPK1 (P. falciparum) (Plasmodium falciparum, UniProt P62344); conditions: 0.1 µM; binder
# T1 sequence (P62344 whole entry): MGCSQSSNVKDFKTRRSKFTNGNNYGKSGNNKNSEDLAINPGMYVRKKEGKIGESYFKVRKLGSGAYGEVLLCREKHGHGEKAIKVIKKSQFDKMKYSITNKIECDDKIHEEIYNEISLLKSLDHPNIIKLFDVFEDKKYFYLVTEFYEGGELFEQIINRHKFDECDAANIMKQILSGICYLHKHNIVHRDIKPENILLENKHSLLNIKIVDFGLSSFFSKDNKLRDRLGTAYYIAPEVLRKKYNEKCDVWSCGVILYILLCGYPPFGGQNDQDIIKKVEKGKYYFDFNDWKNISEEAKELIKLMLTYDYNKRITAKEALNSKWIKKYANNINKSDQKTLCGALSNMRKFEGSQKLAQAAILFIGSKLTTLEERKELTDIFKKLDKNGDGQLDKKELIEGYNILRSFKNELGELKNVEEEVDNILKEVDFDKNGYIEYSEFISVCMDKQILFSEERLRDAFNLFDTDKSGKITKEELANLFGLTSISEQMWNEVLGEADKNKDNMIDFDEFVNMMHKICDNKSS
# [29] = molecular target: T1, PFCDPK1 (P. falciparum); conditions: 1 µM; binder
structure (smiles),measurement,setting,value
"CNc1ncc2cc(-c3ccc(-c4cccc(C)n4)cc3Cl)c(=O)n(C[C@H]3OC[C@H](N)CO3)c2n1 [compound 6, G-5555]",Percent Control,[1],100%
same,Percent Control,[2],76%
same,Percent Control,[3],100%
same,Percent Control,[4],100%
same,Percent Control,[5],94%
same,Percent Control,[6],92%
same,Percent Control,[7],79%
same,Percent Control,[8],84%
same,Percent Control,[9],100%
same,Percent Control,[10],96%
same,Percent Control,[11],92%
same,Percent Control,[12],100%
same,Percent Control,[13],100%
same,Percent Control,[14],81%
same,Percent Control,[15],77%
same,Percent Control,[16],0.5%
same,Percent Control,[17],75%
same,Percent Control,[18],100%
same,Percent Control,[19],100%
same,Percent Control,[20],84%
same,Percent Control,[21],87%
same,Percent Control,[22],100%
same,Percent Control,[23],97%
same,Percent Control,[24],100%
same,Percent Control,[25],100%
same,Percent Control,[26],90%
same,Percent Control,[27],99%
same,Percent Control,[28],9.1%
same,Percent Control,[29],0.4%
